Assay results published in patent US20110003867A1, “NOVEL 2-ETHYL-METHYL-AMINO-3-AMIDO-6-AMINO-PYRIDINE DERIVATIVES USEFUL AS POTASSIUM CHANNEL ACTIVATORS” (NeuroSearch A/S, priority 2007, published 2011).

Target: T1, human Kv72+3 channels (Homo sapiens, UniProt O43525+O43526)
T1 construct: expressed in transfected cells
Test: Patch-clamp on HEK293 cell lines stably expressing human Kv7.2+3 channels
Format: cell-based
Conditions: conc. 0.03 μM, −30 mV, 20 ms; baseline current defined as 100%; HEK293 cells
Excerpt: The effect obtained by these channel activators is described as a percentage increase in baseline current at a given concentration. The baseline current is defined as 100%, and an increase in current is expressed relative to this, i.e. an increase from 1 nA to 1.2 nA is reported as 120%.

I^K(%) increase in baseline current	Structure (SMILES)
548%	CCN(C)c1nc(NCC(C)C)ccc1NC(=O)Cc1cc(F)cc(F)c1 [Compound 11, 2-(3,5-Difluoro-phenyl)-N-[2-(ethyl-methyl-amino)-6-isobutylamino-pyridin-3-yl]-acetamide]
105%	CCN(C)c1nc(NCc2ccc(F)cc2)ccc1NC(=O)CC(C)(C)C [Compound 8, N-[2-Ethylmethylamino-6-(4-fluoro-benzylamino)-pyridin-3-yl]-3,3-dimethyl-butyramide]

The next lines start with the compound.

Structure (SMILES)	I^K(%) increase in baseline current
CCN(C)c1nc(NCc2ccc(F)cc2)ccc1NC(=O)[C@@H]1C[C@H]1c1ccccc1 (relative stereo) [Compound 6, trans-2-Phenyl-cyclopropanecarboxylic acid [2-Ethylmethylamino-6-(4-fluoro-benzylamino)-pyridin-3-yl]-amide]	285%
CCN(C)c1nc(NCc2ccc(F)cc2)ccc1NC(=O)Cc1ccc(C(F)(F)F)c(F)c1 [Compound 3, N-[2-Ethylnnethylamino-6-(4-fluoro-benzylamino)-pyridin-3-yl]-2-(3-fluoro-4-trifluoromethyl-phenyl)-acetamide]	268%
CN(C)c1nc(NCc2ccc(F)cc2)ccc1NC(=O)Cc1cc(F)cc(F)c1 [Compound 1, N-[2-Dimethylamino-6-(4-fluoro-benzylamino)-pyridin-3-yl]-2-(3,5-difluoro-phenyl)-acetamide]	685%
